Reference: patent US9522882B2, “Strigolactam derivatives as plant growth regulating compounds” (Syngenta Participations AG, priority 2011, dated 2016)

Legend:
[1] = tested on: Orobanche cumana Wallr. seeds; test: Orobanche cumana seed germination test on glass fiber filter paper in petri dishes; type: in vivo; settings: mean, n = 5 × 100 seeds; for Germination %* at concentration of 0.001 mg I^−1 / Germination %* at concentration of 0.01 mg I^−1 / Germination %* at concentration of 0.1 mg I^−1: preconditioned Orobanche cumana seeds of lot IN153, race F
Method: The effect of compounds of Formula (I) on germination of Orobanche cumana Wallr. seeds was evaluated on glass fiber filter paper (GFFP) in petri dishes. Seeds were preconditioned at moisture and suitable temperature to become responsive to the specific chemical germination stimulants.
Test compounds were dissolved in DMSO (10 000 mg l^−1) and stored at room temperature in a desiccators with desiccants. The stock solutions were dissolved with deionised water to the appropriate final test concentration.
Seeds of O. cumana race ‘F’ were collected from sunflower fields in Manzanilla (Seville, Spain) in 2006 (seed lot 1N146) and 2008 (seed lot 1N153) and stored at room temperature. To separate seeds from heavy organic debris, a modified sucrose floatation technique as described by Hartman & Tanimonure (Plant Disease (1991), 75, p. 494) was applied. Seeds were filled into a separation funnel and stirred in water. When seeds floated to the surface, the water fraction containing heavy debris was discarded. Seeds were re-suspended in 2.5M sucrose solution (specific gravity of 1.20) and heavy debris was allowed to settle down for 60 min. After removing debris, seeds were disinfected in 1% sodium hypochlorite solution and 0.025% (v/v) Tween 20 for 2 min. The seeds were decanted onto two layers of cheesecloth, rinsed with sterile deionised water and re-suspended in sterile deionised water. Two ml of the seed suspension containing approximately 150-400 seeds were spread evenly on two layers of sterile glass fiber filter paper disc ([…]) in Petri dishes (Ø9 cm). After wetting the discs with 3 ml sterile deionised water, petri dishes were sealed with parafilm. Seeds were incubated for 10 days at 20° C. in the dark for seed conditioning. The upper disc with conditioned seeds was briefly dried, transferred to a petri dish lined with a dry GFFP disc, and wetted with 6 ml of the appropriate test solution. The compounds of Formula (I) were tested at concentrations of 0.001, 0.01, and 0.1 mg l^−1. The strigolactone analogue GR24 (commercially available as a mixture of isomers) was included as positive control and 0.001% DMSO as negative control. All treatments were tested in five replicates. Seeds were re-incubated at 20° C. in the dark and examined for germination 10 days later. The radicles of germinated seeds were stained for 5 min with blue ink (MIGROS, Switzerland) in 5% acetic acid according to Long et al. (Seed Science Research (2008), 18, p. 125). After staining, seeds were scanned using a flatbed scanner with an optical resolution of 1200 dpi (PULSTEK, OpticPro ST28) or photographed using a camera stand mounted with a digital SLR camera (Canon EOS 5D). Germination of 100 seeds per replicate was evaluated on digital images. Seeds were considered germinated when the radicle protruded from the seed coat.

[2] = tested on: Brassica oleracea cv Botrytis; test: Standard paper germination test for Brassica (tropical cauliflower seeds, 20° C. in the dark); type: in vivo; settings: tropical cauliflower 3C150 (seed batch 11B295), 25 μM
Method: The effect of compounds of Formula (I) on the germination of Brassica oleracea cv Botrytis or common cauliflower was tested on tropical types. […] Germination of a sensitive tropical type at 20° is stimulated by the presence of light.
The tropical seed batch tested was part of seed batches produced as basic seed (for maintenance of the parental line) and were processed accordingly.
Germination was assessed using the standard paper germination test for Brassica: Fifty seeds were placed on blue germination paper, which was moistened with the appropriate solutions, in closed oblong germination boxes. Each condition was tested in duplo. Germination boxes were placed in controlled germination cabinets with the appropriate temperature and light conditions. Germination of seeds was counted at regular intervals. Seeds were considered to be germinated when the radical had protruded the testa and endosperm (radical size approximately 1 mm). Germination kinetics were analyzed using the Germinator analysis tool in order to obtain the parameters: Gmax (maximum germination) and t50 (time needed to reach 50% of the Gmax). The Germinator analysis tool is an add-in in for excel developed by the University of Wageningen: Joosen, R. V. L., J. Kodde, et al. (2010). (“Germinator: A Software Package for High-Throughput Scoring and Curve Fitting of Arabidopsis Seed Germination.” The Plant Journal 62(1): 148-159.)
Test compounds were dissolved in DMSO at a concentration of 50 mM and stored at −20° C. The strigolactone analogue GR24 (commercially available as a racemic mixture of 2 diastereoisomers, referred to as “synthetic strigolactone GR-24” and first prepared by Johnson A. W. & all, Journal of the Chemical Society, Perkin Transactions 1, 1981, page 1734-1743) was included as positive control. Germination solutions were prepared by diluting the stock solutions with demineralized water till 25 μM. As control solutions demineralized water and a 0.05% v/v DMSO solution were used.

[3] = aqueous control (0.001% DMSO) = 0.2% germination
[4] = Table 6, preconditioned seeds of lot IN153, raceF, aqueous control (0.001% DMSO) = 0.8% germination
[5] = Table 5, preconditioned seeds of lot IN153, raceF, aqueous control (0.001% DMSO) = 0.2% germination
[6] = Table 3, preconditioned seeds of lot IN146, raceF, aqueous control (0.001% DMSO) = 0% germination
[7] = Table 4, preconditioned seeds of lot IN146, raceF, aqueous control (0.001% DMSO) = 0% germination

SMILES	Germination %* at concentration of 0.001 mg I^−1 [1, 3] [%]	Germination %* at concentration of 0.01 mg I^−1 [1, 3] [%]	Germination %* at concentration of 0.1 mg I^−1 [1, 3] [%]	other results
CC1=C[C@H](O/C=C2/C(=O)N[C@@H]3c4c(cccc4C4CC4)C[C@H]23)OC1=O [Compound A8, (3E,3aR,8bS)-8-cyclopropyl-3-[[(2R)-4-methyl-5-oxo-2H-furan-2-yl]oxymethylene]-1,3a,4,8b-tetrahydroindeno[1,2-b]pyrrol-2-one]	81.2	88.5	86.8	–
C=Cc1cccc2c1C[C@@H]1/C(=C\O[C@H]3C=C(C)C(=O)O3)C(=O)N[C@H]21 (relative stereo) [Compound A7]	–	–	–	Germination % at concentration of 0.001 mg I^−1 [1, 4]: 96.4%; Germination % at concentration of 0.01 mg I^−1 [1, 4]: 96.8%; Germination % at concentration of 0.1 mg I^−1 [1, 4]: 95.4%
CC1=CC(OC=C2C(=O)NC3c4cccc(-c5ccco5)c4CC23)OC1=O (mixture of isomers) [Compound A13]	13.4	66.4	90.0	–
CC1=CC(OC=C2C(=O)NC3c4cccc(-c5cccnc5)c4CC23)OC1=O (mixture of isomers) [Compound A11]	30.0	65.6	90.8	–
COCC#Cc1cccc2c1C[C@@H]1/C(=C\O[C@H]3C=C(C)C(=O)O3)C(=O)N[C@H]21 (relative stereo) [Compound A5]	–	–	–	Germination % at concentration of 0.001 mg I^−1 [1, 5]: 79.0%; Germination % at concentration of 0.01 mg I^−1 [1, 5]: 91.4%; Germination % at concentration of 0.1 mg I^−1 [1, 5]: 99.2%
CC1=CC(OC=C2C(=O)NC3c4cccc(-c5ccncc5)c4CC23)OC1=O (mixture of isomers) [Compound A10]	11.2	18.0	24.0	–
CC1=C[C@H](O/C=C2/C(=O)N[C@@H]3c4cccc(C#Cc5ccccc5)c4C[C@H]23)OC1=O (relative stereo) [Compound A6]	2.6	40.2	83.6	–
CC1=CC(OC=C2C(=O)NC3c4cccc(-c5ccccc5)c4CC23)OC1=O (mixture of isomers) [Compound A9]	53.4	84.4	76.8	–
C#Cc1cccc2c1C[C@@H]1/C(=C\O[C@H]3C=C(C)C(=O)O3)C(=O)N[C@H]21 [Compound A2, (3E,3aR,8bS)-5-ethynyl-3-[(4-methyl-5-oxo-2H-furan-2-yl)oxymethylene]-1,3a,4,8b-tetrahydroindeno[1,2-b]pyrrol-2-one]	–	–	–	Germination % at concentration of 0.001 mg I^−1 [1, 6]: 85.8%; Germination % at concentration of 0.01 mg I^−1 [1, 6]: 82.0%; Germination % at concentration of 0.1 mg I^−1 [1, 6]: 86.2%
CC#Cc1cccc2c1C[C@@H]1/C(=C\O[C@H]3C=C(C)C(=O)O3)C(=O)N[C@H]21 (relative stereo) [Compound A4]	–	–	–	Germination % at concentration of 0.001 mg I^−1 [1, 5]: 97.6%; Germination % at concentration of 0.01 mg I^−1 [1, 5]: 94.4%; Germination % at concentration of 0.1 mg I^−1 [1, 5]: 98.2%
COC(=O)c1ccc2c(c1)C1NC(=O)/C(=C/O[C@H]3C=C(C)C(=O)O3)[C@H]1C2 (stereo in doubt) [Compound A3, methyl(3E,3aR,8bR)-3-[[(2R)-4-methyl-5-oxo-2H-furan-2-yl]oxymethylene]-2-oxo-1,3a,4,8b-tetrahydroindeno[1,2-b]pyrrole-7-carboxylate]	–	–	–	Germination % at concentration of 0.001 mg I^−1 [1, 7]: 85.8%; Germination % at concentration of 0.01 mg I^−1 [1, 7]: 82.0%; Germination % at concentration of 0.1 mg I^−1 [1, 7]: 82.6%; stimulation (extra germination compared to the DMSO treatment, expressed as percentage of the DMSO treatment) [2]: 36.7%; Gmax (total germination) ([2]; DMSO treatment = 31.3%): 43.0%
C=CCc1cccc2c1C[C@@H]1/C(=C\O[C@H]3C=C(C)C(=O)O3)C(=O)N[C@H]21 (relative stereo) [Compound A1, (3aR*,8bS*, 5′R*)-5-allyl-3-[1-(4-Methyl-5-oxo-2,5-dihydro-furan-2-yloxy)-meth-(E)-ylidene]-3,3a,4,8b-tetrahydro-1H-indeno[1,2-b]pyrrol-2-one]	–	–	–	Germination % at concentration of 0.001 mg I^−1 [1, 6]: 85.8%; Germination % at concentration of 0.01 mg I^−1 [1, 6]: 82.0%; Germination % at concentration of 0.1 mg I^−1 [1, 6]: 82.6%
CC1=CC(OC=C2C(=O)NC3c4cccc(-c5nccs5)c4CC23)OC1=O (mixture of isomers) [Compound A12]	13.0	7.0	26.8	–
